Structures are written as SMILES. Where a name gives a salt, the structure may show the parent alone.

We go through 19 molecules from US5750531A, “Pyrimidine derivatives and processes for the preparation thereof” (Yuhan Corporation, priority 1994, dated 1998).

For experiment [1], the target named is proton pump(H^+ /K^+ ATPase). The experiment is described as follows: Inhibition of proton pump(H^+ /K^+ ATPase) activity. The format is biochemical. Conditions: pH 6.0, 37° C., 30 minutes preincubation and 30 minutes reaction; read-out: IC50 Test compound. As for the experimental part:
Test 1: Inhibition of proton pump(H^+ /K^+ ATPase) activity
A proton pump enzyme source was prepared by the same method as in Experiment 1-1 of WO 94/14795. Further, the inhibitory effect of proton pump activity was measured by the same method as in Experiment 1-2 of WO 94/14795.
Namely, the proton pump activity stimulated by Mg^++ was used as a negative comparative group, and the activity stimulated by Mg^++ and K^+ was used as a positive comparative group. The comparative compound was omeprazole.
Test tubes were divided into 4 groups: Group 1 as negative comparative group(n=3), Group 2 as positive comparative group(n=3), Group 3(n=5×2) to be administered with the compound of the present invention and Group 4(n=5×2) to be administered with the comparative compound.
The inhibitory effects of Groups 3 and 4 on proton pump activity were measured by employing the compound prepared in Example and omeperazole, respectively, each of which was dissolved in dimethylsulfoxide at 5 different concentrations.
To each of Groups 1, 2, 3 and 4 were added 100 μl of magnesium chloride(40 mM) dissolved in 40 mM Tris-HCl buffer(pH 6.0) and 100μ of the enzyme source. Then, 50μ of potassium chloride(50 mM) and 50 μl of ammonium chloride(6 mM) dissolved in 40 mM Tris-HCl buffer(pH 6.0) were added to all groups except for Group 1.
10 μl of dimethylsulfoxide was added to each of Groups 1 and 2; and to Group 3 was added 10 μl of the solution in which the compound prepared in Example was dissolved in dimethylsulfoxide at 5 different concentrations(n=5×2). To Group 4, 10 μl of the solution prepared by dissolving omeprazole in dimethylsulfoxide at 5 different concentrations(37.6, 21.4, 12.2, 7.0 and 4.0 μM) was added(n=5×2). 40 mM Tris-HCl buffer(pH=6.0) was added thereto so as to make the total volume 400 μl.
Thereafter, the test tubes of each Group were placed at 37° C. for 30 minutes for the preincubation. 100 μl of ATP solution (6.6 mM) was added until the reaction volume became 500 μl. After the reaction was carried out at 37° C. for 30 minutes, 25% cold trichloroacetic acid was added to terminate the enzyme reaction. The released inorganic phosphate was measured by an automatic analyzer(Express 550, Corning).
The difference between Group 1 and Group 2 represents the proton pump activity activated by K^+ only. The inhibition percentages of Groups 3 and 4 were calculated from Litchfield-wilcoxon equation[see, e.g., J. pharmacol. Exp. Ther., 96, 99(1949)]. The concentrations of the test compounds which inhibit 50% of the proton pump activity are represented as IC50 in Table 1.

A further experiment deals with gastric secretion. The experiment is described as follows: Inhibition of gastric secretion (pylorus ligation, Shay method). In kind it is in vivo, Male Sprague-Dawley rats. Conditions: 20 mg/kg intraduodenally, 5 hours; for Rel. Conc.: acid concentration relative to omeprazole; for Relative Acid Output: acid output relative to omeprazole; for Rel. Vol.: gastric juice volume relative to omeprazole. The protocol: Inhibition of gastric secretion […] Under ether anesthesia, the abdomen was incised, and the pylorus was ligated. […] After closing the abdominal cavity, the rats were placed for 5 hours and then killed by cervical dislocation. The stomach was extracted to obtain gastric juice. The gastric juice was centrifuged at 1,000 g to remove precipitates. The amount and acidity of the gastric juice were measured. Relative volumes, relative acid concentrations and relative acid outputs of the test compounds were calculated from equations(I), (II) and (III) and the results are shown in Table 2. […] Group 3) (II) […] (III)

Broadly, the IC50 is the midpoint of a concentration-inhibition curve. Take `CC1c2ccccc2CCN1c1nc(N(C)c2ccccc2)nc2c1CCC2` (stereo not shown) [Example 31, 2-(N-methylphenylamino)-4-(1-methyl-1,2,3,4-tetrahydroisoquinolin-2-yl)cyclopenta[d]pyrimidine hydrochloride]: the IC50 in experiment [1] is ~15000 nM. Moreover, in the experiment on gastric secretion, the Rel. Conc. was found to be 0.21, the “Relative Acid Output” value is reported as 0.74 and the Rel. Vol. turned out to be 0.83.

Turning to `Cc1cc(F)ccc1Nc1nc2c(c(N3CCc4ccccc4C3C)n1)CCCC2.Cl` (stereo not shown) [Example 32, 2-(2-methyl-4-fluorophenylamino)-4-(1-methyl-1,2,3,4-tetrahydroisoquinolin-2-yl)-5,6,7,8-tetrahydroquinazoline hydrochloride], the IC50 in experiment [1] amounted to 1200 nM. In the experiment with gastric secretion, the Rel. Conc. is 0.97, the “Relative Acid Output” value turned out to be 0.91 and the Rel. Vol. turned out to be 1.03.

As for `Cc1cc(N2CCc3ccccc3C2)nc(Nc2ccc(F)cc2C)n1.Cl` [Example 34, 6-methyl-2-(2-methyl-4-fluorophenylamino)-4-(1,2,3,4-tetrahydroisoquinolin-2-yl)pyrimidine hydrochloride], the IC50 in experiment [1] was 1000 nM. In the experiment on gastric secretion, the Rel. Conc. came to 1, the “Relative Acid Output” value is 0.99 and the Rel. Vol. was 0.99.

In the case of `Cc1cc(N2CCc3ccccc3C2)nc(Nc2ccc(F)cc2)n1.Cl` [Example 35, 6-methyl-2-(4-fluorophenylamino)-4-(1,2,3,4-tetrahydroisoquinoline-2-yl)pyrimidine hydrochloride], in experiment [1], the IC50 was 2500 nM. Also, in the experiment on gastric secretion, the Rel. Conc. was 0.84, the “Relative Acid Output” value came to 0.94 and the Rel. Vol. is 1.05.

As for `CCc1cc(N2CCc3ccccc3C2)nc(Nc2ccc(F)cc2C)n1.Cl` [Example 37, 6-ethyl-2-(2-methyl-4-fluorophenylamino)-4-(1,2,3,4-tetrahydroisoquinolin-2-yl)pyrimidine hydrochloride], the IC50 in experiment [1] is 700 nM. For the same molecule, in the experiment with gastric secretion, the Rel. Conc. is 0.42, the “Relative Acid Output” value is on record as 0.82 and the Rel. Vol. was 0.82.

As to `CCc1cc(N2CCc3ccccc3C2)nc(Nc2ccc(F)cc2)n1.Cl` [Example 38, 6-ethyl-2-(4-fluorophenylamino)-4-(1,2,3,4-tetrahydroisoquinolin-2-yl)pyrimidine hydrochloride], the IC50 in experiment [1] came out at 2200 nM. In addition, in the experiment with gastric secretion, the Rel. Conc. came to 0.37, the “Relative Acid Output” value stood at 0.74 and the Rel. Vol. was found to be 0.74.

Turning to `CCc1cc(N2CCc3ccccc3C2)nc(N(C)c2ccccc2)n1.Cl` [Example 39, 6-ethyl-2-(N-methylphenylamino)-4-(1,2,3,4-tetrahydroisoquinolin-2-yl)pyrimidine hydrochloride], the IC50 in experiment [1] is > 15000 nM. Also, in the experiment on gastric secretion, the Rel. Conc. was 0.18, the “Relative Acid Output” value is 0.56 and the Rel. Vol. is 0.58.

For `CCc1cc(N2CCc3ccccc3C2)nc(Nc2ccccc2C)n1.Cl` [Example 40, 6-ethyl-2-(2-methylphenylamino)-4-(1,2,3,4-tetrahydroisoquinolin-2-yl)pyrimidine hydrochloride], the IC50 in experiment [1] amounted to 700 nM. Moreover, in the experiment on gastric secretion, the Rel. Conc. was determined as 0.36, the “Relative Acid Output” value came to 0.74 and the Rel. Vol. is 0.71.

In the case of `Cc1cc(F)ccc1Nc1nc(C)c(C)c(N2CCc3ccccc3C2)n1.Cl` [Example 41, 5,6-dimethyl-2-(2-methyl-4-fluorophenylamino)-4-(1,2,3,4-tetrahydroisoquinolin-2-yl)pyrimidine hydrochloride], the IC50 in experiment [1] worked out at 600 nM. Also, in the experiment with gastric secretion, the Rel. Conc. was 1.87, the “Relative Acid Output” value is on record as 1.12 and the Rel. Vol. is 0.94.

As for `Cc1nc(Nc2ccc(F)cc2)nc(N2CCc3ccccc3C2)c1C.Cl` [Example 42, 5,6-dimethyl-2-(4-fluorophenylamino)-4-(1,2,3,4-tetrahydroisoquinolin-2-yl)pyrimidine hydrochloride], the IC50 in experiment [1] is 1500 nM. In the experiment on gastric secretion, the Rel. Conc. amounted to 1.4, the “Relative Acid Output” value is given as 1.15 and the Rel. Vol. was found to be 1.15.

Take `CCc1nc(Nc2ccc(F)cc2C)nc(N2CCc3ccccc3C2)c1C.Cl` [Example 44, 5-methyl-6-ethyl-2-(2-methyl-4-fluorophenylamino)-4-(1,2,3,4-tetrahydroisoquinolin-2-yl)pyrimidine hydrochloride]: the IC50 in experiment [1] is ~11300 nM. In the experiment on gastric secretion, the Rel. Conc. is 0.33, the “Relative Acid Output” value is on record as 0.41 and the Rel. Vol. worked out at 0.27.

In the case of `CCc1nc(Nc2ccc(F)cc2)nc(N2CCc3ccccc3C2)c1C.Cl` [Example 45, 5-methyl-6-ethyl-2-(4-fluorophenylamino)-4-(1,2,3,4-tetrahydroisoquinolin-2-yl)pyrimidine hydrochloride], in experiment [1], the IC50 amounted to 3100 nM. In addition, in the experiment with gastric secretion, the Rel. Conc. was 0.75, the “Relative Acid Output” value is 0.89 and the Rel. Vol. worked out at 0.84.

Turning to `CCc1nc(N(C)c2ccccc2)nc(N2CCc3ccccc3C2)c1C.Cl` [Example 46, 5-methyl-6-ethyl-2-(N-methylphenylamino)-4-(1,2,3,4-tetrahydroisoquinolin-2-yl)pyrimidine hydrochloride], the IC50 in experiment [1] is ~19200 nM. In the experiment on gastric secretion, the Rel. Conc. is 0.44, the “Relative Acid Output” value stood at 0.74 and the Rel. Vol. stood at 0.73.

Regarding `Cc1cc(F)ccc1Nc1nc2c(c(N3CCc4ccccc4C3)n1)CCC2` [Example 47, 2-(2-methyl-4-fluorophenylamino)-4-(1,2,3,4-tetrahydroisoquinolin-2-yl)cyclopenta[d]pyrimidine hydrochloride], in experiment [1], the IC50 is ~5000 nM. Also, in the experiment on gastric secretion, the Rel. Conc. stood at 0.14, the “Relative Acid Output” value is 0.38 and the Rel. Vol. is 0.38.

For the molecule `Cc1cc(F)ccc1Nc1nc2c(c(N3CCc4ccccc4C3)n1)CCCC2.Cl` [Example 48, 2-(2-methyl-4-fluorophenylamino)-4-(1,2,3,4-tetrahydroisoquinolin-2-yl)-5,6,7,8-tetrahydroquinazoline hydrochloride], the IC50 in experiment [1] is ~5500 nM. Besides, in the experiment on gastric secretion, the Rel. Conc. came out at 0.04, the “Relative Acid Output” value was 0.16 and the Rel. Vol. came out at 0.17.

`Cl.Fc1ccc(Nc2nc3c(c(N4CCc5ccccc5C4)n2)CCCC3)cc1` [Example 49, 2-(4-fluorophenylamino)-4-(1,2,3,4-tetrahydroisoquinolin-2-yl)-5,6,7,8-tetrahydroquinazoline hydrochloride]: in experiment [1], the IC50 is ~10800 nM. Further, in the experiment on gastric secretion, the Rel. Conc. is 0.02, the “Relative Acid Output” value was found to be 0.16 and the Rel. Vol. was 0.2.

Consider `CN(c1ccccc1)c1nc2c(c(N3CCc4ccccc4C3)n1)CCCC2.Cl` [Example 50, 2-(N-methylphenylamino)-4-(1,2,3,4-tetrahydroisoquinolin-2-yl)-5,6,7,8-tetrahydroquinazoline hydrochloride], for which, in experiment [1], the IC50 was ~16900 nM. Further, in the experiment on gastric secretion, the Rel. Conc. turned out to be 0.29, the “Relative Acid Output” value was 0.66 and the Rel. Vol. was determined as 0.72.

Consider `Cc1ccccc1Nc1nc2c(c(N3CCc4ccccc4C3)n1)CCCC2.Cl` [Example 51, 2-(2-methylphenylamino)-4-(1,2,3,4-tetrahydroisoquinolin-2-yl)-5,6,7,8-tetrahydroquinazoline hydrochloride], for which the IC50 in experiment [1] came out at 1100 nM. In addition, in the experiment with gastric secretion, the Rel. Conc. was found to be 0.12, the “Relative Acid Output” value is 0.59 and the Rel. Vol. was determined as 0.59.

Regarding `Cc1cc(N2CCc3ccsc3C2C)nc(Nc2ccc(F)cc2C)n1.Cl` (stereo not shown) [Example 52, 6-methyl-2-(2-methyl-4-fluorophenylamino)-4-(7-methyl-4,5,6,7-tetrahydrothieno[2,3-c]pyridin-6-yl)pyrimidine hydrochloride], in experiment [1], the IC50 amounted to 500 nM. In the experiment with gastric secretion, the Rel. Conc. is 0.94, the “Relative Acid Output” value turned out to be 1.12 and the Rel. Vol. amounted to 1.34.
